Where two headings read alike, the source gives them in different places.
Assays:
Test in all cases: Ras GTP binding domain inhibition assay (Cy3-GTP/Cy5-GTP competition)
KRas G12C mutant = tested on: KRas G12C mutant; set-up: species or system human; details: 20 μM; for KRas G12C mutant + SOS: % inh.: with SOS; for KRas G12C mutant: % inh.: without SOS
Method in brief: (§1)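 Ni-plate immobilised His-Ras, overnight 4 °C; cpd 20 μM (or dilution series for IC50), 1% DMSO, 3 h RT; optional His-Sos […] last hour; Cy3- or Cy5-GTP 100 nM, 45 min RT; 3× wash; bound fluorescence read.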

KRas Q61H mutant = tested on: KRas Q61H mutant; set-up: species or system human; details: 20 μM; for KRas Q61H mutant + SOS: % inh.: with SOS; for KRas Q61H mutant: % inh.: without SOS
Method in brief: as §1

KRas wild type = tested on: KRas wild type; set-up: species or system human; details: 20 μM; for KRas wild type + SOS: % inh.: with SOS; for KRas wild type: % inh.: without SOS
Method in brief: as §1

KRas G12D mutant = biological target: T1, KRas G12D mutant (Homo sapiens, UniProt P01116, G12D); details: 20 μM
T1 construct: fused on or other part: His tag, used for capture on nickel-coated plates
Method in brief: as §1

[1] = with SOS, read-out: KRas G-12D mutant + SOS: % inh.
[2] = without SOS, read-out: KRas G12D mutant: % inh.

SMILES | KRas G12C mutant + SOS: % inh. (KRas G12C mutant) | KRas G12C mutant: % inh. (KRas G12C mutant) | KRas Q61H mutant + SOS: % inh. (KRas Q61H mutant) | KRas Q61H mutant: % inh. (KRas Q61H mutant) | KRas wild type + SOS: % inh. (KRas wild type) | KRas wild type: % inh. (KRas wild type) | inhibition at 20 µM (KRas G12D mutant; [1]) [%] | inhibition at 20 µM (KRas G12D mutant; [2]) [%]
Oc1nc(-c2cn3ccccc3n2)nc2c(-c3ccccn3)csc12 [drawing 816] | B (26-50% inhibition) | B (26-50% inhibition) | B (26-50% inhibition) | B (26-50% inhibition) | A (1-25% inhibition) | C (51-75% inhibition) | 1 to 25 | 26 to 50
O=C(NCc1ccccc1)c1nc(-c2ccccn2)nc(O)c1O [drawing 821] | C (51-75% inhibition) | B (26-50% inhibition) | C (51-75% inhibition) | D (76-100% inhibition) | B (26-50% inhibition) | D (76-100% inhibition) | 51 to 75 | 51 to 75
COC1CCN(c2nc(-c3nccn3C)nc3sc(Br)c(-c4ccccc4)c23)C1 (centres unmarked) [drawing 822] | D (76-100% inhibition) | B (26-50% inhibition) | C (51-75% inhibition) | B (26-50% inhibition) | D (76-100% inhibition) | C (51-75% inhibition) | 51 to 75 | 26 to 50
Cn1ccnc1-c1nc(O)c(O)c(C(=O)NC2CCC2)n1 [drawing 825] | B (26-50% inhibition) | C (51-75% inhibition) | C (51-75% inhibition) | C (51-75% inhibition) | B (26-50% inhibition) | C (51-75% inhibition) | 26 to 50 | 51 to 75
Cn1ccnc1-c1nc(O)c(O)c(C(=O)N2CCCCC2)n1 [drawing 826] | A (1-25% inhibition) | B (26-50% inhibition) | B (26-50% inhibition) | B (26-50% inhibition) | A (1-25% inhibition) | C (51-75% inhibition) | 1 to 25 | 26 to 50
Cn1ccnc1-c1nc(O)c(O)c(C(=O)NC2CCCC2)n1 [drawing 827] | B (26-50% inhibition) | C (51-75% inhibition) | C (51-75% inhibition) | C (51-75% inhibition) | B (26-50% inhibition) | C (51-75% inhibition) | 26 to 50 | 51 to 75
Cn1ccnc1-c1nc(O)c(O)c(C(=O)N2CCCC2)n1 [drawing 828] | A (1-25% inhibition) | B (26-50% inhibition) | B (26-50% inhibition) | C (51-75% inhibition) | A (1-25% inhibition) | B (26-50% inhibition) | 1 to 25 | 26 to 50
CCN(CC)C(=O)c1nc(-c2nccn2C)nc(O)c1O [drawing 829] | A (1-25% inhibition) | A (1-25% inhibition) | B (26-50% inhibition) | B (26-50% inhibition) | A (1-25% inhibition) | B (26-50% inhibition) | 1 to 25 | 51 to 75
CC(C)NC(=O)c1nc(-c2nccn2C)nc(O)c1O [drawing 830] | B (26-50% inhibition) | C (51-75% inhibition) | C (51-75% inhibition) | C (51-75% inhibition) | B (26-50% inhibition) | C (51-75% inhibition) | 26 to 50 | 51 to 75
O=C(c1nc(-c2ccccn2)nc(O)c1O)N1CCCC1 [drawing 831] | A (1-25% inhibition) | B (26-50% inhibition) | B (26-50% inhibition) | B (26-50% inhibition) | A (1-25% inhibition) | C (51-75% inhibition) | 1 to 25 | 51 to 75

Source: US20250296938A1, “Compounds that Interact with the Ras Superfamily for the Treatment of Cancers, Inflammatory Diseases, Rasopathies, and Fibrotic Disease” (SHY Therapeutics, LLC, priority 2018, published 2025)
